Measured values taken from ChEMBL document CHEMBL5113538, “Discovery of Novel Allosteric EGFR L858R Inhibitors for the Treatment of Non-Small-Cell Lung Cancer as a Single Agent or in Combination with Osimertinib” (J Med Chem, 2022).

Assays:
BaF3 [1] = assay: Cytotoxicity against mouse BaF3 cells harboring EGFR L858R/C797S mutant assessed as reduction in cell viability measured after 72 hrs by cell titre glo luminescence assay; format: functional, cell-based; settings: for IC50: BaF3, 72 h; for IC90: BaF3, time 72 hrs
[2] = biological target: Epidermal growth factor receptor (Homo sapiens, UniProt P00533, C797S/L858R/T790M)
[3] = Intrinsic clearance in mouse liver hepatocytes measured per 10^6 cells incubated upto 2 hrs by LC-MS/MS analysis; format: ADME, cell-based, Hepatocyte; settings: read-out: CLH
[4] = Intrinsic clearance in human liver hepatocytes measured per 10^6 cells incubated upto 2 hrs by LC-MS/MS analysis; format: ADME, cell-based, Hepatocyte; settings: read-out: CLH
[5] = biological target: Epidermal growth factor receptor (Homo sapiens, UniProt P00533, C797S/L858R)
BaF3 [6] = assay: Cytotoxicity against mouse BaF3 cells expressing EGFR L858R/T790M/C797S mutant assessed as reduction in cell viability measured after 72 hrs by cell titre glo luminescence assay; format: functional, cell-based; settings: for IC50: BaF3, 72 h; for IC90: BaF3, time 72 hrs
BaF3 [7] = assay: Antitumor activity against mouse BaF3 cells harboring EGFR L858R/C797S mutant allografted in Balb/c nude mouse assessed as in tumor growth inhibition at 30 mg/kg administered twice daily measured on day 20; format: functional; settings: BaF3, 480 h, time 20 day, read-out: TGI

Sequence of Epidermal growth factor receptor (Homo sapiens, UniProt P00533, C797S/L858R/T790M) (P00533 25-1210 T790M/C797S/L858R limits assumed): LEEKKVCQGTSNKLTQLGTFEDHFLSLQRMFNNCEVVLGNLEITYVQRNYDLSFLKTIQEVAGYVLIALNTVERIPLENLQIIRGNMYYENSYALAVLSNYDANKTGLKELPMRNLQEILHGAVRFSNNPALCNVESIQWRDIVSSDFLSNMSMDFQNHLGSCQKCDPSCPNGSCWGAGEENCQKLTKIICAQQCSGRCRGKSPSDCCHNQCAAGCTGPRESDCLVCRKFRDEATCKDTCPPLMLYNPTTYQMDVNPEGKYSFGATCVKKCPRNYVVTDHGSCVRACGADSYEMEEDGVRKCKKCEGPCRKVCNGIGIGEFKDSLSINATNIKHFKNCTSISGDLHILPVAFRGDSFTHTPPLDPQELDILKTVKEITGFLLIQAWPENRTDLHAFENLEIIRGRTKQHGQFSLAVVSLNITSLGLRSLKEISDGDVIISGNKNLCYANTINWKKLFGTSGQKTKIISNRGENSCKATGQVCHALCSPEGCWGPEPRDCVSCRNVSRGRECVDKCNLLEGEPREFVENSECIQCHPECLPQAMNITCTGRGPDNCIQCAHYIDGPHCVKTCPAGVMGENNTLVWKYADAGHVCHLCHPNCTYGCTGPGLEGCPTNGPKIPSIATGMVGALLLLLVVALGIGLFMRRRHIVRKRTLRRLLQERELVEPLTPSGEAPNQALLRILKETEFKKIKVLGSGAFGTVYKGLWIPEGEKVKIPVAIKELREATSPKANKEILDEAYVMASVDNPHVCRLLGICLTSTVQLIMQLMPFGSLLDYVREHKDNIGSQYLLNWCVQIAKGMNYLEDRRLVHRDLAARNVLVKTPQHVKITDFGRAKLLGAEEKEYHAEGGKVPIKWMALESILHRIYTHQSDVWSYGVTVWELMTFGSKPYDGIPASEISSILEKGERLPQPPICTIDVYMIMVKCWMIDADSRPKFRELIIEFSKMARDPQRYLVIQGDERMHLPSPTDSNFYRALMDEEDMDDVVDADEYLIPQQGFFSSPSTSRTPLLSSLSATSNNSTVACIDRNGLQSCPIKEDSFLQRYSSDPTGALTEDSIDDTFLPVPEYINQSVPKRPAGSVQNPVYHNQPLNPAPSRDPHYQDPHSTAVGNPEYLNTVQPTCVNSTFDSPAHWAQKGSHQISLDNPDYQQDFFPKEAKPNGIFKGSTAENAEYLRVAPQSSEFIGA
Sequence of Epidermal growth factor receptor (Homo sapiens, UniProt P00533, C797S/L858R) (P00533 25-1210 C797S/L858R limits assumed): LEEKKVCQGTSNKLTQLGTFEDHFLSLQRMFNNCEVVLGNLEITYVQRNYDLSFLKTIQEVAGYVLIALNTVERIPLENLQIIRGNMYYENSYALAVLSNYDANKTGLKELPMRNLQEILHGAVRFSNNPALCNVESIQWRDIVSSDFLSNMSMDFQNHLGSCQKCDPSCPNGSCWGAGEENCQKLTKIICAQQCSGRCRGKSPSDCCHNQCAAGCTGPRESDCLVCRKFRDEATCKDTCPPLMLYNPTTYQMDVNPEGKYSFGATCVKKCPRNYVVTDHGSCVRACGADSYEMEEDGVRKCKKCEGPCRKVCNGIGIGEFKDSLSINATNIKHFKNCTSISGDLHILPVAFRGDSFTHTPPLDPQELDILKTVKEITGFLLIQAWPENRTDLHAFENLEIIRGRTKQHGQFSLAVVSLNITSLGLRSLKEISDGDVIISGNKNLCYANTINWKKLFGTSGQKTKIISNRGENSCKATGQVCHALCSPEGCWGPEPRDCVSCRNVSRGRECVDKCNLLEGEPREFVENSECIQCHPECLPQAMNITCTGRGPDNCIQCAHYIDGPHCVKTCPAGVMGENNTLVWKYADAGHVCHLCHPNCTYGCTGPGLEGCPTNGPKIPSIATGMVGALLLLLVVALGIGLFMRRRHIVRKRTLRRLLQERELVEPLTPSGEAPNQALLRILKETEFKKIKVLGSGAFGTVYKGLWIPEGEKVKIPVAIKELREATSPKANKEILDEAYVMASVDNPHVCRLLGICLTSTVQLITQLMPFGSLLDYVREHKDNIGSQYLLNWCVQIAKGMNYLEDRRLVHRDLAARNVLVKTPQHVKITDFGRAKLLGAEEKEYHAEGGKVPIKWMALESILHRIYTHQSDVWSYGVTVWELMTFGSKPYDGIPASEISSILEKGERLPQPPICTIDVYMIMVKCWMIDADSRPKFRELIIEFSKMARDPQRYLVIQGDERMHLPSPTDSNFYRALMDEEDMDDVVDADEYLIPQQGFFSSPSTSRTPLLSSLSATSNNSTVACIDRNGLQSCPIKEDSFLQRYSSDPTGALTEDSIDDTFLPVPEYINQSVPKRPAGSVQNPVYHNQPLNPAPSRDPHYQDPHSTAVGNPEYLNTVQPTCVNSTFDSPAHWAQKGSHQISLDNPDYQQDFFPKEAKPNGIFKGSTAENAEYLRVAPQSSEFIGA

| IC50 [2] | hepatocyte CLint [3] | hepatocyte CLint [4] | IC50 [5] | SMILES | IC50 (BaF3 [1]) | IC90 (BaF3 [1]) | IC50 (BaF3 [6]) | IC90 (BaF3 [6]) | inhibition in vivo at 30 mg/kg (BaF3 [7]) |
| --- | --- | --- | --- | --- | --- | --- | --- | --- | --- |
| 7 nM |  |  |  | Cc1c(-c2ccc(N3CCOCC3)cc2)cc(C(F)F)c2cn(C(C(=O)Nc3nccs3)c3ncn4c3C[C@@H](F)C4)nc12 (mixture of isomers) | 4 nM |  |  |  |  |
|  |  |  |  | O=C(Nc1nccs1)C(c1ncn2c1CCC2)N1Cc2ccc(C#Cc3ccccc3)cc2C1=O (configuration not stated) | > 10000 nM | > 10000 nM |  |  |  |
| 4 nM | 68 µL/min/1e6 cells | 7 µL/min/1e6 cells | 183 nM | O=C(Nc1nccs1)C(c1ncn2c1CCC2)N1Cc2c(Cl)cccc2C1=O (configuration not stated) |  |  |  |  |  |
|  |  |  |  | O=C(Nc1nccs1)C(c1cc(F)ccc1O)N1Cc2ccc(-c3ccc(N4CCNCC4)cc3)cc2C1=O (configuration not stated) | 1550 nM | 7280 nM | 30 nM | 40 nM |  |
| 23 nM |  |  | 3200 nM | O=C(Nc1nccs1)C(c1n[nH]c2c1CCC2)N1Cc2ccccc2C1=O (configuration not stated) |  |  |  |  |  |
| 16 nM |  |  | 1700 nM | O=C(Nc1nccs1)C(c1ncn2c1CCC2)N1Cc2ccccc2C1=O (configuration not stated) |  |  |  |  |  |
| 6 nM |  |  | 17 nM | O=C(Nc1nccs1)C(c1ncn2c1C[C@@H](F)C2)n1cc2c(Cl)cc(-c3ccc(N4CCOCC4)cc3)c(Cl)c2n1 (mixture of isomers) | 12 nM |  |  |  |  |
|  |  |  | 33 nM | O=C(Nc1nccs1)C(c1ncn2c1CCC2)n1cc2c(Cl)cc(-c3ccc(N4CCOCC4)cc3)c(Cl)c2n1 (configuration not stated) | 46 nM | 126 nM | 31 nM | 74 nM |  |
|  | 27 µL/min/1e6 cells | 67 µL/min/1e6 cells |  | O=C(Nc1nccs1)C(c1cc(F)ccc1O)N1Cc2ccccc2C1=O (configuration not stated) |  |  |  |  |  |
| 938 nM |  |  | > 10000 nM | O=C(Nc1nccs1)C(c1cc[nH]n1)N1Cc2ccccc2C1=O (configuration not stated) |  |  |  |  |  |
| 6 nM |  |  | 106 nM | O=C(Nc1nccs1)C(c1ncn2c1CCC2)n1cc2c(F)cc(C#Cc3ccc(CN4CCC(O)CC4)cc3)cc2n1 (configuration not stated) | 800 nM |  | 9 nM |  |  |
|  |  |  | 15 nM | CCN1CCN(c2ccc(-c3cc(Cl)c4cn(C(C(=O)Nc5nccs5)c5ncn6c5C[C@@H](F)C6)nc4c3Cl)cc2)CC1 (mixture of isomers) | 15 nM | 42 nM | 8 nM | 19 nM |  |
| 3 nM |  |  |  | Cc1c(C#Cc2ccc(CN3CCC(CO)CC3)cc2)cc(C(F)F)c2cn(C(C(=O)Nc3nccs3)c3ncn4c3CCC4)nc12 (configuration not stated) | 2 nM |  | 1 nM |  |  |
| 7 nM |  |  | 54 nM | O=C(Nc1nccs1)C(c1ncn2c1CCC2)N1Cc2c(F)cc(C#Cc3ccc(CN4CCCCC4)cc3)cc2C1=O (configuration not stated) | 207 nM | 711 nM | 10 nM | 24 nM |  |
| 4 nM | 19 µL/min/1e6 cells | 5 µL/min/1e6 cells | 12 nM | CC1(C)CCc2c(C(C(=O)Nc3nccs3)N3Cc4c(cc(C#Cc5ccc(CN6CCC(CO)CC6)cc5)cc4C(F)F)C3=O)ncn21 (configuration not stated) | 1 nM | 2 nM | 1 nM | 3 nM |  |
| 10 nM |  |  |  | Cc1c(-c2ccc(N3CCOCC3)cc2)cc(C(F)F)c2cn(C(C(=O)Nc3nccs3)c3ncn4c3CCC43CC3)nc12 (configuration not stated) | 3 nM |  |  |  | 26% |
|  |  |  | 22 nM | CCN1CCN(c2ccc(-c3cc(Cl)c4cn(C(C(=O)Nc5nccs5)c5ncn6c5CCC6)nc4c3Cl)cc2)CC1 (configuration not stated) | 26 nM | 70 nM | 13 nM | 33 nM |  |
| 4 nM | 33 µL/min/1e6 cells | 3.1 µL/min/1e6 cells | 13 nM | O=C(Nc1nccs1)C(c1ncn2c1CCC2)N1Cc2c(cc(C#Cc3ccc(CN4CCC(CO)CC4)cc3)cc2C(F)F)C1=O (configuration not stated) | 4 nM | 12 nM | 1 nM | 3 nM |  |
| 116 nM |  |  | 1100 nM | Nc1ccc(C#Cc2cc(F)c3c(c2)C(=O)N(C(C(=O)Nc2nccs2)c2ncn4c2CCC4)C3)cn1 (configuration not stated) | > 10000 nM | > 10000 nM | 200 nM | 490 nM |  |
| 17 nM |  |  | 30 nM | O=C(Nc1nccs1)C(c1ncn2c1C[C@@H](F)C2)n1cc2c(Cl)cc(-c3ccc(N4CCN(C5CC5)CC4)cc3)c(Cl)c2n1 (mixture of isomers) | 36 nM | 104 nM | 23 nM | 55 nM |  |
| 7 nM |  |  | 129 nM | O=C(Nc1nccs1)C(c1ncn2c1CCC2)N1Cc2c(F)cc(C#Cc3cccnc3)cc2C1=O (configuration not stated) | 1800 nM | 7000 nM | 12 nM | 30 nM |  |
|  |  |  | 12 nM | O=C(Nc1nccs1)C(c1ncn2c1CCC2)N1Cc2c(F)cc(C#Cc3ccc(CN4CCC(CO)CC4)cc3)cc2C1=O (configuration not stated) | 16 nM | 47 nM | 1 nM | 2 nM |  |
| > 10000 nM |  |  | > 10000 nM | Cc1[nH]nc(C(C(=O)Nc2nccs2)N2Cc3ccccc3C2=O)c1C (configuration not stated) |  |  |  |  |  |
| 7 nM |  |  | 297 nM | O=C(Nc1nccs1)C(c1ncn2c1CCC2)N1Cc2ccc(C#Cc3ccc(CN4CCC(O)CC4)cc3)cc2C1=O (configuration not stated) | 1250 nM | 3250 nM | 10 nM | 24 nM |  |
| 3 nM | 50 µL/min/1e6 cells | 3.3 µL/min/1e6 cells | 26 nM | O=C(Nc1nccs1)C(c1ncn2c1CCC2)N1Cc2c(cc(C#Cc3ccc(CN4CCC(CO)CC4)cc3)cc2C(F)(F)F)C1=O (configuration not stated) | 2 nM | 5 nM | 0.5 nM | 1 nM |  |
| 460 nM |  |  | > 10000 nM | O=C(Nc1nccs1)C(c1ncn2c1CCC2)N1Cc2ccc(C#Cc3cccnc3)cc2C1=O (configuration not stated) | > 10000 nM | > 10000 nM | 1200 nM | 3000 nM |  |
| 7 nM |  |  | 91 nM | CCN1CCN(c2ccc(-c3cc(F)c4cn(C(C(=O)Nc5nccs5)c5ncn6c5CCC6)nc4c3)cc2)CC1 (configuration not stated) | 650 nM | 2600 nM | 13 nM | 30 nM |  |
| 16 nM | 6 µL/min/1e6 cells | 6.5 µL/min/1e6 cells | 342 nM | O=C(Nc1nccs1)C(c1ncn2c1CCC2)N1Cc2ccc(C#Cc3ccc(CN4CCCCC4)cc3)cc2C1=O (configuration not stated) | 1300 nM | 3100 nM | 17 nM | 42 nM |  |
| 5 nM | 3.6 µL/min/1e6 cells | 1.6 µL/min/1e6 cells | 33 nM | O=C(Nc1nccs1)C(c1ncn2c1CCC2)N1Cc2c(F)cc(C#Cc3ccc(CN4CCC(O)CC4)cc3)cc2C1=O (configuration not stated) | 72 nM | 285 nM | 5 nM | 13 nM |  |
